Laboratory results: the supplement of paper PMC10307832

How the values were obtained:
Assay in all cases: relative viability (nuclei count vs DMSO), 5 days (fraction); higher = more cells survive
CAL-12T = tested on: CAL-12T
Procedure, shortened: (§1)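 The day after seeding in 1536-well plates, lung cancer cell lines were treated by pin tool with a single drug, or with a fixed anchor-drug dose together with five library-drug doses (not always all listed) in √10 steps. After 5 days, a combined fix-and-stain solution (final 0.05% Triton X-100, 1% formaldehyde, 1 ug/ml Hoechst) was added. Nuclei counted on 4× images gave relative viability as treated counts over vehicle counts, reported as the median of duplicate plates.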

EKVX = tested on: EKVX
Procedure, shortened: as §1

H3255 = tested on: H3255
Procedure, shortened: as §1

HCC-15 = tested on: HCC-15
Procedure, shortened: as §1

HCC-827 = tested on: HCC-827
Procedure, shortened: as §1

LCLC-97TM1 = tested on: LCLC-97TM1
Procedure, shortened: as §1

LK-2 = tested on: LK-2
Procedure, shortened: as §1

NCI-H1355 = tested on: NCI-H1355
Procedure, shortened: as §1

NCI-H1563 = tested on: NCI-H1563
Procedure, shortened: as §1

NCI-H1650 = tested on: NCI-H1650
Procedure, shortened: as §1

NCI-H1734 = tested on: NCI-H1734
Procedure, shortened: as §1

NCI-H1755 = tested on: NCI-H1755
Procedure, shortened: as §1

NCI-H1975 = tested on: NCI-H1975
Procedure, shortened: as §1

NCI-H2228 = tested on: NCI-H2228
Procedure, shortened: as §1

NCI-H2342 = tested on: NCI-H2342
Procedure, shortened: as §1

NCI-H2405 = tested on: NCI-H2405
Procedure, shortened: as §1

NCI-H322M = tested on: NCI-H322M
Procedure, shortened: as §1

NCI-H520 = tested on: NCI-H520
Procedure, shortened: as §1

NCI-H661 = tested on: NCI-H661
Procedure, shortened: as §1

PC-14 = tested on: PC-14
Procedure, shortened: as §1

PC-3 [JPC-3] = tested on: PC-3 [JPC-3]
Procedure, shortened: as §1

RERF-LC-KJ = tested on: RERF-LC-KJ
Procedure, shortened: as §1

O=c1cc(N2CCOCC2)oc2c(-c3cccc4c3sc3ccccc34)cccc12 + Cc1nc(Nc2ncc(C(=O)Nc3c(C)cccc3Cl)s2)cc(N2CCN(CCO)CC2)n1 [Dasatinib] (partner 0.075 µM)
relative viability (CAL-12T; first compound 0.01 µM): 0.322 | relative viability (CAL-12T; first compound 0.03162 µM): 0.531 | relative viability (CAL-12T; first compound 0.1 µM): 0.49 | relative viability (CAL-12T; first compound 0.3162 µM): 0.317 | relative viability (CAL-12T; first compound 1 µM): 0.295 | relative viability (EKVX; first compound 0.01 µM): 0.528 | relative viability (EKVX; first compound 0.03162 µM): 0.469 | relative viability (EKVX; first compound 0.1 µM): 0.672 | relative viability (EKVX; first compound 0.3162 µM): 0.607 | relative viability (EKVX; first compound 1 µM): 0.605 | relative viability (H3255; first compound 0.01 µM): 0.348 | relative viability (H3255; first compound 0.03162 µM): 0.338 | relative viability (H3255; first compound 0.1 µM): 0.337 | relative viability (H3255; first compound 0.3162 µM): 0.379 | relative viability (H3255; first compound 1 µM): 0.345 | relative viability (HCC-15; first compound 0.01 µM): 0.63 | relative viability (HCC-15; first compound 0.03162 µM): 0.675 | relative viability (HCC-15; first compound 0.1 µM): 0.697 | relative viability (HCC-15; first compound 0.3162 µM): 0.577 | relative viability (HCC-15; first compound 1 µM): 0.602 | relative viability (HCC-827; first compound 0.01 µM): 0.338 | relative viability (HCC-827; first compound 0.03162 µM): 0.293 | relative viability (HCC-827; first compound 0.1 µM): 0.323 | relative viability (HCC-827; first compound 0.3162 µM): 0.283 | relative viability (HCC-827; first compound 1 µM): 0.328 | relative viability (LCLC-97TM1; first compound 0.01 µM): 0.904 | relative viability (LCLC-97TM1; first compound 0.03162 µM): 0.86 | relative viability (LCLC-97TM1; first compound 0.1 µM): 0.788 | relative viability (LCLC-97TM1; first compound 0.3162 µM): 0.917 | relative viability (LCLC-97TM1; first compound 1 µM): 0.898 | relative viability (LK-2; first compound 0.01 µM): 0.329 | relative viability (LK-2; first compound 0.03162 µM): 0.289 | relative viability (LK-2; first compound 0.1 µM): 0.338 | relative viability (LK-2; first compound 0.3162 µM): 0.339 | relative viability (LK-2; first compound 1 µM): 0.279 | relative viability (NCI-H1355; first compound 0.01 µM): 0.789 | relative viability (NCI-H1355; first compound 0.03162 µM): 0.692 | relative viability (NCI-H1355; first compound 0.1 µM): 0.695 | relative viability (NCI-H1355; first compound 0.3162 µM): 0.731 | relative viability (NCI-H1355; first compound 1 µM): 0.682 | relative viability (NCI-H1563; first compound 0.01 µM): 0.445 | relative viability (NCI-H1563; first compound 0.03162 µM): 0.451 | relative viability (NCI-H1563; first compound 0.1 µM): 0.445 | relative viability (NCI-H1563; first compound 0.3162 µM): 0.51 | relative viability (NCI-H1563; first compound 1 µM): 0.412 | relative viability (NCI-H1650; first compound 0.01 µM): 0.34 | relative viability (NCI-H1650; first compound 0.03162 µM): 0.33 | relative viability (NCI-H1650; first compound 0.1 µM): 0.315 | relative viability (NCI-H1650; first compound 0.3162 µM): 0.287 | relative viability (NCI-H1650; first compound 1 µM): 0.276 | relative viability (NCI-H1734; first compound 0.01 µM): 0.498 | relative viability (NCI-H1734; first compound 0.03162 µM): 0.517 | relative viability (NCI-H1734; first compound 0.1 µM): 0.49 | relative viability (NCI-H1734; first compound 0.3162 µM): 0.439 | relative viability (NCI-H1734; first compound 1 µM): 0.415 | relative viability (NCI-H1755; first compound 0.01 µM): 0.511 | relative viability (NCI-H1755; first compound 0.03162 µM): 0.412 | relative viability (NCI-H1755; first compound 0.1 µM): 0.471 | relative viability (NCI-H1755; first compound 0.3162 µM): 0.416 | relative viability (NCI-H1755; first compound 1 µM): 0.415 | relative viability (NCI-H1975; first compound 0.01 µM): 0.333 | relative viability (NCI-H1975; first compound 0.03162 µM): 0.349 | relative viability (NCI-H1975; first compound 0.1 µM): 0.333 | relative viability (NCI-H1975; first compound 0.3162 µM): 0.378 | relative viability (NCI-H1975; first compound 1 µM): 0.404 | relative viability (NCI-H2228; first compound 0.01 µM): 0.538 | relative viability (NCI-H2228; first compound 0.03162 µM): 0.416 | relative viability (NCI-H2228; first compound 0.1 µM): 0.49 | relative viability (NCI-H2228; first compound 0.3162 µM): 0.523 | relative viability (NCI-H2228; first compound 1 µM): 0.543 | relative viability (NCI-H2342; first compound 0.01 µM): 0.352 | relative viability (NCI-H2342; first compound 0.03162 µM): 0.307 | relative viability (NCI-H2342; first compound 0.1 µM): 0.332 | relative viability (NCI-H2342; first compound 0.3162 µM): 0.322 | relative viability (NCI-H2342; first compound 1 µM): 0.325 | relative viability (NCI-H2405; first compound 0.01 µM): 0.188 | relative viability (NCI-H2405; first compound 0.03162 µM): 0.224 | relative viability (NCI-H2405; first compound 0.1 µM): 0.201 | relative viability (NCI-H2405; first compound 0.3162 µM): 0.238 | relative viability (NCI-H2405; first compound 1 µM): 0.196 | relative viability (NCI-H322M; first compound 0.01 µM): 0.231 | relative viability (NCI-H322M; first compound 0.03162 µM): 0.255 | relative viability (NCI-H322M; first compound 0.1 µM): 0.292 | relative viability (NCI-H322M; first compound 0.3162 µM): 0.252 | relative viability (NCI-H322M; first compound 1 µM): 0.224 | relative viability (NCI-H520; first compound 0.01 µM): 0.184 | relative viability (NCI-H520; first compound 0.03162 µM): 0.201 | relative viability (NCI-H520; first compound 0.1 µM): 0.231 | relative viability (NCI-H520; first compound 0.3162 µM): 0.168 | relative viability (NCI-H520; first compound 1 µM): 0.203 | relative viability (NCI-H661; first compound 0.01 µM): 0.764 | relative viability (NCI-H661; first compound 0.03162 µM): 0.869 | relative viability (NCI-H661; first compound 0.1 µM): 0.889 | relative viability (NCI-H661; first compound 0.3162 µM): 0.993 | relative viability (NCI-H661; first compound 1 µM): 0.842 | relative viability (PC-14; first compound 0.01 µM): 0.237 | relative viability (PC-14; first compound 0.03162 µM): 0.267 | relative viability (PC-14; first compound 0.1 µM): 0.276 | relative viability (PC-14; first compound 0.3162 µM): 0.257 | relative viability (PC-14; first compound 1 µM): 0.237 | relative viability (PC-3 [JPC-3]; first compound 0.01 µM): 0.97 | relative viability (PC-3 [JPC-3]; first compound 0.03162 µM): 0.974 | relative viability (PC-3 [JPC-3]; first compound 0.1 µM): 1.02 | relative viability (PC-3 [JPC-3]; first compound 0.3162 µM): 0.935 | relative viability (PC-3 [JPC-3]; first compound 1 µM): 0.993 | relative viability (RERF-LC-KJ; first compound 0.01 µM): 0.85 | relative viability (RERF-LC-KJ; first compound 0.03162 µM): 0.918 | relative viability (RERF-LC-KJ; first compound 0.1 µM): 0.934 | relative viability (RERF-LC-KJ; first compound 0.3162 µM): 0.769 | relative viability (RERF-LC-KJ; first compound 1 µM): 0.818
